Results: US20260191968A1, “PROTAC DEGRADERS OF MLLT1 AND/OR MLLT3” (DARK BLUE THERAPEUTICS LTD, priority 2024, published 2026)

How the values were obtained:
[1] = test system: MV4-11 cells; assay: MV4-11 cellular proliferative assay, Assay Format B (CTG 2.0, 168 h); type: cell-based; conditions: Homo sapiens, 168 h (7 days), CTG 2.0, read-out: IC50 (MV4-11 cellular proliferative assay, Assay format B)
Outline: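 MV4-11 cells seeded overnight in IMDM + 10% FBS, then exposed to 10-point, 3-fold dilutions from 1 uM or 100 nM top concentration (0.3% DMSO final) for 168 h at 37 °C. CTG 2.0 luminescence read; % viability vs DMSO control fitted by four-parameter logistic regression.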

[2] = biological target: T1, MLLT1 (Homo sapiens, UniProt Q03111); assay: MLLT1 degradation assay in MV4-11 cells (JESS chemiluminescent detection), three concentrations, 24 h; type: cell-based; conditions: with respect to DMSO control
T1 construct: host or cells: MV4-11
T1 sequence (Q03111 1-559): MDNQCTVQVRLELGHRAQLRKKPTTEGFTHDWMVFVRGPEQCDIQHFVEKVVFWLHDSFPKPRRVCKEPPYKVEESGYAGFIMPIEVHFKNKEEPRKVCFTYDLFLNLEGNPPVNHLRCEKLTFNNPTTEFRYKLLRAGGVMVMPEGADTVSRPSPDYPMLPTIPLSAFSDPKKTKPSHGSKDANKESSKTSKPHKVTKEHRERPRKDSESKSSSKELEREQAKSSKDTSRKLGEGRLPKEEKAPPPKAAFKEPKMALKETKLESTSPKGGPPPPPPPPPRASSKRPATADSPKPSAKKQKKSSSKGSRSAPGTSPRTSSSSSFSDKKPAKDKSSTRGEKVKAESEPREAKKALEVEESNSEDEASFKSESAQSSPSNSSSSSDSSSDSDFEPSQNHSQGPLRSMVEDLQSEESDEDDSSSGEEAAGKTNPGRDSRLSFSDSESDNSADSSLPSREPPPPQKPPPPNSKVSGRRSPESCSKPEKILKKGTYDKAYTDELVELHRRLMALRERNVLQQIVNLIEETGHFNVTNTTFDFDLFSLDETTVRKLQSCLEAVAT
Outline: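 MV4-11 cells treated 24 h at 37° C, 5% CO2 with 1000, 100 and 10 nM compound (0.1% DMSO final). MLLT1 quantified by automated capillary chemiluminescent immunodetection; band peak area expressed as % degradation relative to DMSO control.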

Structure (SMILES)	IC50 [1] [nM]	MLLT1% Degradation @ 0.01 μM [2]	MLLT1% Degradation @ 0.1 μM [2]	MLLT1% Degradation @ 1 μM [2]
CN1CCC[C@@H]1c1[nH]c2cc(NC(=O)c3ccc(CCCC#Cc4cccc5c4CN(C4CCC(=O)NC4=O)C5=O)cc3)ncc2c1Cl (stereo partly drawn) [Example 100, N-(3-chloro-2-((R)-1-methylpyrrolidin-2-yl)-1H-pyrrolo[3,2-c]pyridin-6-yl)-4-(5-(2-(2,6-dioxopiperidin-3-yl)-1-oxoisoindolin-4-yl)pent-4-yn-1-yl)benzamide]	≤ 100	A (Category A: A ≥ 75% degradation)	A (Category A: A ≥ 75% degradation)	A (Category A: A ≥ 75% degradation)
CN1CCC[C@@H]1c1cc2cnc(NC(=O)c3ccc(N4CCC(COC5CCN(c6cccc7c6CN(C6CCC(=O)NC6=O)C7=O)CC5)CC4)nc3)cc2[nH]1 (stereo partly drawn) [Example 140, 6-(4-(((1-(2-(2,6-dioxopiperidin-3-yl)-1-oxoisoindolin-4-yl)piperidin-4-yl)oxy)methyl)piperidin-1-yl)-N-(2-((R)-1-methylpyrrolidin-2-yl)-1H-pyrrolo[3,2-c]pyridin-6-yl)nicotinamide]	≤ 100	B (Category B: 50% ≤ B < 75% degradation)	A (Category A: A ≥ 75% degradation)	A (Category A: A ≥ 75% degradation)
CN1CCC[C@@H]1c1cc2cnc(NC(=O)c3ccc(N4CCC(c5ccc(-c6cccc7c6CN(C6CCC(=O)NC6=O)C7=O)cc5)CC4)nc3)cc2[nH]1 (stereo partly drawn) [Example 67, 6-(4-(4-(2-(2,6-dioxopiperidin-3-yl)-1-oxoisoindolin-4-yl)phenyl)piperidin-1-yl)-N-(2-((R)-1-methylpyrrolidin-2-yl)-1H-pyrrolo[3,2-c]pyridin-6-yl)nicotinamide]	≤ 100	A (Category A: A ≥ 75% degradation)	A (Category A: A ≥ 75% degradation)	A (Category A: A ≥ 75% degradation)
CN1CCC[C@@H]1c1cc2cnc(NC(=O)c3ccc(N4CCN(CC5CCN(c6ccc7c(c6)n(C)c(=O)n7C6CCC(=O)NC6=O)CC5)CC4)cc3)cc2[nH]1 (stereo partly drawn) [Example 170, 4-(4-((1-(1-(2,6-dioxopiperidin-3-yl)-3-methyl-2-oxo-2,3-dihydro-1H-benzo[d]imidazol-5-yl)piperidin-4-yl)methyl)piperazin-1-yl)-N-(2-((R)-1-methylpyrrolidin-2-yl)-1H-pyrrolo[3,2-c]pyridin-6-yl)benzamide]	≤ 100	A (Category A: A ≥ 75% degradation)	A (Category A: A ≥ 75% degradation)	A (Category A: A ≥ 75% degradation)
CN1CCC[C@@H]1c1cc2cnc(NC(=O)c3ccc(OCC#Cc4cccc5c4n(C)c(=O)n5C4CCC(=O)NC4=O)cc3)cc2[nH]1 (stereo partly drawn) [Example 66, 4-((3-(1-(2,6-dioxopiperidin-3-yl)-3-methyl-2-oxo-2,3-dihydro-1H-benzo[d]imidazol-4-yl)prop-2-yn-1-yl)oxy)-N-(2-((R)-1-methylpyrrolidin-2-yl)-1H-pyrrolo[3,2-c]pyridin-6-yl)benzamide]	≤ 100	A (Category A: A ≥ 75% degradation)	A (Category A: A ≥ 75% degradation)	A (Category A: A ≥ 75% degradation)
CN1CCC[C@@H]1c1cc2cnc(NC(=O)c3cnc(N4CCC(CC#Cc5cccc6c5CN(C5CCC(=O)NC5=O)C6=O)CC4)cn3)cc2[nH]1 (stereo partly drawn) [Example 154, 5-(4-(3-(2-(2,6-dioxopiperidin-3-yl)-1-oxoisoindolin-4-yl)prop-2-yn-1-yl)piperidin-1-yl)-N-(2-((R)-1-methylpyrrolidin-2-yl)-1H-pyrrolo[3,2-c]pyridin-6-yl)pyrazine-2-carboxamide]	≤ 100	A (Category A: A ≥ 75% degradation)	A (Category A: A ≥ 75% degradation)	A (Category A: A ≥ 75% degradation)
CN1CCC[C@@H]1c1cc2cnc(NC(=O)c3ccc(OCCC4CCN(c5cccc6c5C(=O)N(C5CCC(=O)NC5=O)C6=O)CC4)cc3)cc2[nH]1 (stereo partly drawn) [Example 82, 4-(2-(1-(2-(2,6-dioxopiperidin-3-yl)-1,3-dioxoisoindolin-4-yl)piperidin-4-yl)ethoxy)-N-(2-((R)-1-methylpyrrolidin-2-yl)-1H-pyrrolo[3,2-c]pyridin-6-yl)benzamide]	≤ 100	B (Category B: 50% ≤ B < 75% degradation)	A (Category A: A ≥ 75% degradation)	A (Category A: A ≥ 75% degradation)
[2H]C([2H])([2H])N1CCC[C@@H]1c1cc2cnc(NC(=O)c3ccc(CCCC#Cc4cccc5c4CN(C4CCC(=O)NC4=O)C5=O)cc3)cc2[nH]1 (stereo partly drawn) [Example 111, 4-(5-(2-(2,6-dioxopiperidin-3-yl)-1-oxoisoindolin-4-yl)pent-4-yn-1-yl)-N-(2-((R)-1-(methyl-d3)pyrrolidin-2-yl)-1H-pyrrolo[3,2-c]pyridin-6-yl)benzamide]	≤ 100	A (Category A: A ≥ 75% degradation)	A (Category A: A ≥ 75% degradation)	A (Category A: A ≥ 75% degradation)
CN1CCC[C@@H]1c1cc2cnc(NC(=O)c3ccc(CCCc4ccc(-c5cccc6c5CN(C5CCC(=O)NC5=O)C6=O)cc4)cc3)cc2[nH]1 (stereo partly drawn) [Example 199, 4-(3-(4-(2-(2,6-dioxopiperidin-3-yl)-1-oxoisoindolin-4-yl)phenyl)propyl)-N-(2-((R)-1-methylpyrrolidin-2-yl)-1H-pyrrolo[3,2-c]pyridin-6-yl)benzamide]	≤ 100	A (Category A: A ≥ 75% degradation)	A (Category A: A ≥ 75% degradation)	A (Category A: A ≥ 75% degradation)
CN1CCC[C@@H]1c1cc2cnc(NC(=O)c3cc(F)c(CCCCC#Cc4cccc5c4CN(C4CCC(=O)NC4=O)C5=O)c(F)c3)cc2[nH]1 (stereo partly drawn) [Example 156, 4-(6-(2-(2,6-dioxopiperidin-3-yl)-1-oxoisoindolin-4-yl)hex-5-yn-1-yl)-3,5-difluoro-N-(2-((R)-1-methylpyrrolidin-2-yl)-1H-pyrrolo[3,2-c]pyridin-6-yl)benzamide]	≤ 100	A (Category A: A ≥ 75% degradation)	A (Category A: A ≥ 75% degradation)	A (Category A: A ≥ 75% degradation)
CN1CCC[C@@H]1c1cc2cnc(NC(=O)c3ccc(CCCN4CCN(c5cccc6c5CN(C5CCC(=O)NC5=O)C6=O)CC4)cc3)cc2[nH]1 (stereo partly drawn) [Example 131, 4-(3-(4-(2-(2,6-dioxopiperidin-3-yl)-1-oxoisoindolin-4-yl)piperazin-1-yl)propyl)-N-(2-((R)-1-methylpyrrolidin-2-yl)-1H-pyrrolo[3,2-c]pyridin-6-yl)benzamide]	≤ 100	B (Category B: 50% ≤ B < 75% degradation)	A (Category A: A ≥ 75% degradation)	A (Category A: A ≥ 75% degradation)
CN1CCC[C@@H]1c1cc2cnc(NC(=O)c3ccc(OCCC4CCN(c5cccc6c5CN(C5CCC(=O)NC5=O)C6=O)CC4)c(F)c3F)cc2[nH]1 (stereo partly drawn) [Example 231, 4-(2-(1-(2-(2,6-dioxopiperidin-3-yl)-1-oxoisoindolin-4-yl)piperidin-4-yl)ethoxy)-2,3-difluoro-N-(2-((R)-1-methylpyrrolidin-2-yl)-1H-pyrrolo[3,2-c]pyridin-6-yl)benzamide]	≤ 100	A (Category A: A ≥ 75% degradation)	A (Category A: A ≥ 75% degradation)	A (Category A: A ≥ 75% degradation)
